Results published in the NIST ThermoML archive (doi:10.1021/je300134c).

Test: xn = mol fraction of the nth substance listed
Conditions: 101 kPa, Liquid; for speed of sound: Sing-around technique in a fixed-path interferometer; for mass density: Vibrating tube method

CCCC[N+]1(C)CCCC1.O=S(=O)([O-])C(F)(F)F [1-butyl-1-methylpyrrolidinium trifluoromethanesulfonate] + O
Conditions	mass density [kg/m3]	speed of sound [m/s]
278.15 K, x1 = 0.04996	1113.86	1595.9
278.15 K, x1 = 0.1	1163.55	1607.6
278.15 K, x1 = 0.1507	1190.82	1602.9
278.15 K, x1 = 0.1999	1208.34	1594.2
278.15 K, x1 = 0.2996	1229.14	1574.1
278.15 K, x1 = 0.3986	1240.96	1557
278.15 K, x1 = 0.4982	1248.7	1543.7
278.15 K, x1 = 0.5996	1254.27	1533.2
278.15 K, x1 = 0.6993	1258.35	1525.3
278.15 K, x1 = 0.8017	1261.86	1519.6
278.15 K, x1 = 0.8993	1264.45	1514
278.15 K, x1 = 1	1267.23	1513.5
288.15 K, x1 = 0.04996	1108.53	1594.7
288.15 K, x1 = 0.1	1156.83	1596.2
288.15 K, x1 = 0.1507	1183.59	1586
288.15 K, x1 = 0.1999	1200.79	1574.4
288.15 K, x1 = 0.2996	1221.49	1551.6
288.15 K, x1 = 0.3986	1233.35	1533.7
288.15 K, x1 = 0.4982	1241.17	1520
288.15 K, x1 = 0.5996	1246.83	1509.2
288.15 K, x1 = 0.6993	1251.01	1501
288.15 K, x1 = 0.8017	1254.33	1494.5
288.15 K, x1 = 0.8993	1256.9	1488.9
288.15 K, x1 = 1	1259.74	1486.1
298.15 K, x1 = 0.04996	1102.75	1590.4
298.15 K, x1 = 0.1	1149.85	1582.6
298.15 K, x1 = 0.1507	1176.19	1567.8
298.15 K, x1 = 0.1999	1193.14	1553.8
298.15 K, x1 = 0.2996	1213.77	1529
298.15 K, x1 = 0.3986	1225.71	1510.6
298.15 K, x1 = 0.4982	1233.63	1496.6
298.15 K, x1 = 0.5996	1239.37	1485.8
298.15 K, x1 = 0.6993	1243.63	1477.5
298.15 K, x1 = 0.8017	1247.06	1470.7
298.15 K, x1 = 0.8993	1249.64	1465
298.15 K, x1 = 1	1252.26	1461.4
308.15 K, x1 = 0.04996	1096.56	1583
308.15 K, x1 = 0.1	1142.62	1567
308.15 K, x1 = 0.1507	1168.56	1548.5
308.15 K, x1 = 0.1999	1185.37	1532.4
308.15 K, x1 = 0.2996	1206	1506.2
308.15 K, x1 = 0.3986	1218.04	1487.4
308.15 K, x1 = 0.4982	1226.07	1473.4
308.15 K, x1 = 0.5996	1231.92	1462.6
308.15 K, x1 = 0.6993	1236.25	1454.5
308.15 K, x1 = 0.8017	1239.76	1447.4
308.15 K, x1 = 0.8993	1242.39	1442
308.15 K, x1 = 1	1245.09	1437.8
318.15 K, x1 = 0.04996	1089.97	1572.9
318.15 K, x1 = 0.1	1135.15	1549.7
318.15 K, x1 = 0.1507	1160.74	1528
318.15 K, x1 = 0.1999	1177.49	1510.4
318.15 K, x1 = 0.2996	1198.16	1483.1
318.15 K, x1 = 0.3986	1210.34	1464.2
318.15 K, x1 = 0.4982	1218.51	1450.3
318.15 K, x1 = 0.5996	1224.48	1439.7
318.15 K, x1 = 0.6993	1228.9	1431.7
318.15 K, x1 = 0.8017	1232.49	1424.7
318.15 K, x1 = 0.8993	1235.16	1419.4
318.15 K, x1 = 1	1237.94	1414.9
328.15 K, x1 = 0.04996	1083.01	1560.3
328.15 K, x1 = 0.1	1127.45	1530.8
328.15 K, x1 = 0.1507	1152.76	1506.4
328.15 K, x1 = 0.1999	1169.5	1487.7
328.15 K, x1 = 0.2996	1190.27	1459.7
328.15 K, x1 = 0.3986	1202.62	1441
328.15 K, x1 = 0.4982	1210.95	1427.3
328.15 K, x1 = 0.5996	1217.05	1417
328.15 K, x1 = 0.6993	1221.57	1409.2
328.15 K, x1 = 0.8017	1225.24	1402.3
328.15 K, x1 = 0.8993	1227.97	1397.3
328.15 K, x1 = 1	1230.81	1392.7
338.15 K, x1 = 0.04996	1075.72	1545.4
338.15 K, x1 = 0.1	1119.53	1510.5
338.15 K, x1 = 0.1507	1144.53	1484
338.15 K, x1 = 0.1999	1161.26	1464.5
338.15 K, x1 = 0.2996	1182.3	1436.3
338.15 K, x1 = 0.3986	1194.89	1418
338.15 K, x1 = 0.4982	1203.39	1404.5
338.15 K, x1 = 0.5996	1209.64	1394.5
338.15 K, x1 = 0.6993	1214.26	1387
338.15 K, x1 = 0.8017	1218.03	1380.4
338.15 K, x1 = 0.8993	1220.81	1375.5
338.15 K, x1 = 1	1223.73	1371.1

CCCCn1cc[n+](C)c1.O=S(=O)([O-])C(F)(F)F [1-butyl-3-methylimidazolium trifluoromethanesulfonate] + O
Conditions	mass density [kg/m3]	speed of sound [m/s]
288.15 K, x1 = 0.05002	1122.78	1539.5
288.15 K, x1 = 0.09974	1178.77	1524.8
288.15 K, x1 = 0.1499	1211.09	1510.4
288.15 K, x1 = 0.3013	1257.47	1474.6
288.15 K, x1 = 0.3994	1272.13	1459
288.15 K, x1 = 0.4973	1281.71	1447.6
288.15 K, x1 = 0.5999	1289.22	1438
288.15 K, x1 = 0.6988	1294.59	1431.6
288.15 K, x1 = 0.8953	1302.01	1420.5
288.15 K, x1 = 1	1304.56	1416
298.15 K, x1 = 0.05002	1116.95	1538.2
298.15 K, x1 = 0.09974	1171.65	1514.3
298.15 K, x1 = 0.1499	1203.38	1494.8
298.15 K, x1 = 0.3013	1249.32	1453.8
298.15 K, x1 = 0.3994	1263.98	1437.3
298.15 K, x1 = 0.4973	1273.59	1425.5
298.15 K, x1 = 0.5999	1281.16	1415.7
298.15 K, x1 = 0.6988	1286.57	1408.8
298.15 K, x1 = 0.8953	1294.08	1397.7
298.15 K, x1 = 1	1296.67	1393
308.15 K, x1 = 0.05002	1110.67	1533.5
308.15 K, x1 = 0.09974	1164.25	1501.6
308.15 K, x1 = 0.1499	1195.48	1477.9
308.15 K, x1 = 0.3013	1241.1	1432.7
308.15 K, x1 = 0.3994	1255.79	1415.6
308.15 K, x1 = 0.4973	1265.46	1403.5
308.15 K, x1 = 0.5999	1273.1	1393.6
308.15 K, x1 = 0.6988	1278.56	1386.5
308.15 K, x1 = 0.8953	1286.15	1375.5
308.15 K, x1 = 1	1288.78	1370.7
318.15 K, x1 = 0.05002	1103.96	1525.8
318.15 K, x1 = 0.09974	1156.58	1486.9
318.15 K, x1 = 0.1499	1187.4	1459.8
318.15 K, x1 = 0.3013	1232.82	1411.4
318.15 K, x1 = 0.3994	1247.58	1393.8
318.15 K, x1 = 0.4973	1257.33	1381.7
318.15 K, x1 = 0.5999	1265.05	1371.7
318.15 K, x1 = 0.6988	1270.58	1364.7
318.15 K, x1 = 0.8953	1278.27	1353.8
318.15 K, x1 = 1	1280.95	1349
328.15 K, x1 = 0.05002	1096.85	1515.2
328.15 K, x1 = 0.09974	1148.65	1470.6
328.15 K, x1 = 0.1499	1179.14	1440.5
328.15 K, x1 = 0.3013	1224.48	1389.8
328.15 K, x1 = 0.3994	1239.35	1372.1
328.15 K, x1 = 0.4973	1249.21	1359.9
328.15 K, x1 = 0.5999	1257.03	1350.1
328.15 K, x1 = 0.6988	1262.64	1343.2
328.15 K, x1 = 0.8953	1270.44	1332.5
328.15 K, x1 = 1	1273.16	1327.8
338.15 K, x1 = 0.05002	1089.38	1502.3
338.15 K, x1 = 0.09974	1140.47	1452.7
338.15 K, x1 = 0.1499	1170.71	1420.3
338.15 K, x1 = 0.3013	1216.08	1368.1
338.15 K, x1 = 0.3994	1231.09	1350.4
338.15 K, x1 = 0.4973	1241.08	1338.3
338.15 K, x1 = 0.5999	1249.02	1328.7
338.15 K, x1 = 0.6988	1254.72	1321.6
338.15 K, x1 = 0.8953	1262.66	1311.2
338.15 K, x1 = 1	1265.44	1307
